In one data set the test system is mature Palm trees. As to the kind of experiment: Phytotoxicity to sprayed palm trees. The data set is classed as in vivo. To be noted: spray on mature palm trees. The method, then:
Large-scale examples of the product's use and phytotoxicity at the same concentration (about 11.5%) as used in previous examples were also conducted by Palms of Hawaii. A five-gallon back pack sprayer equipped with a mist spray nozzle was used to spray mature Palm trees being prepared for distribution with about a gallon of spray each.
Upon spraying palm trees having frogs, frogs leap off the root balls and crowns and from the junctions between the fronds and tree trunks. The nurseryman rated the complete removal, if not extermination of all frogs from the trees as excellent.

The subject of another data set is common plants. Also noted: key: severe: most if not all the leaves turned black; flowers and leaves became bleached and recovery was slow; moderate: young leaves and new shoots burned; the outer edges of leaves burned and dropped; dark brown spots appeared where acid may have concentrated; and recovery of the plants were slow; slight: the leaves were spotted white, or lesions formed on the trunk. To be noted: citric acid 25%, three days after treatment, cited from earlier work.

A further data set relates to frogs. As to the kind of experiment: Frog killing time with different concentrations. The data set is classed as in vivo, Eleutherodactylus coqui. The method, then:
Additionally, this formulation killed 10 out of 10 frogs within about 15 minutes.

For a further data set, the system named is Coqui. To be noted: in vivo; cited from earlier work.
The test system of a further data set is human skin. Kind of data set: Contact with human skin. The data set is classed as in vivo. To be noted: solution with pH of less than 0.5. The method, then: As discussed above, AGIIS has relatively less dehydrating properties (such as charring sucrose) as compared to the saturated solution of CaSO4 in the same concentration of H2SO4. […] AGIIS has low volatility at room temperature and pressure.
In view of the need to find new phytogenic friendly alternatives for controlling the spread of Coqui frogs, a commercially available food sanitation product (i.e. Acidic Calcium Sulfate (“ACS”) was evaluated for inclusion in the current inventory of chemicals that can be applied as sprays. ACS and functional equivalents thereof are made from ingredients that are generally regarded as safe (“GRAS”), and is approved for use in food by the FDA and USDA. Although not wanting to be bound by theory, the efficacy of this product stems from its very unique characteristic of being able to donate a very high activity of hydrogen ions (low pH), while at the same time, having very low oxidative effects on plants and human skin. For example, a five (5) normal concentration of ACS having a pH of approximately zero may be held in the human hand without harm to the person holding the acid. In contrast, when very small amounts are applied to the skin of Coqui frogs it is quickly absorbed and respiration is immediately impaired with lethal results. […]

We go through four molecules from US8287919B2, “Low environmental impact pesticide made from “gras” ingredients for use against coqui frogs and other species” (priority 2009, dated 2012).

The structures appear in SMILES notation. Where two headings read alike, the source gives them in different places.

Regarding `O=C(O)CC(O)(CC(=O)O)C(=O)O` [citric acid], in the data set with mature Palm trees, the “phytotoxicity to palm trees” value is “typically causes browning”. Also, the phytotoxicity rating entry is “moderate” with common plants (guava plant, bromeliad, dendrobium orchid and leatherleaf fern); “slight” in the data set on common plants (passion fruit and payaya); “severe” with common plants (streptocarpus, calathea and eggplants).

Consider `CCC(=O)O` [propionic acid], for which the “killing speed compared with standard citric acid” value in the data set on frogs (5% solution) is “killed equally fast”; with frogs (10% solution), “killed frogs faster than standard citric acid”. In the data set with frogs (concentrations from about 5% to about 10%), the lethality to frogs entry is given as “lethal to the frogs in the test group”.

`[Ca+2].[OH-].[OH-]` [hydrated lime]: in the data set on Coqui, the “effectiveness in eradicating frogs” value is “not entirely effective”.

In the case of `O=S(=O)(O)O` [sulfuric acid], the “irritation of hand put into solution” value with human skin is “an irritation would occur within a relatively short span of time”.
